The values below are quoted from earlier work in patent US20220346436A1, “ORALLY DISSOLVING FILMS” (NICOVENTURES TRADING LIMITED, priority 2021, published 2022).

Structures are written as SMILES.

The conditions of series [1]: water / aqueous environment (e.g., saliva).
For series [2] the following is noted: when isolated; isomerises to trans-bixin.

As for `CC(/C=C/C=C(C)/C=C/C(=O)O)=C\C=C\C=C(C)\C=C\C=C(C)\C=C\C(=O)O` (stereo in doubt) [norbixin, (2E,4E,6E,8E,10E,12E,14E,16E,18E)-4,8,13,17-tetramethylicosa-2,4,6,8,10,12,14,16,18-nonaenedioic acid], the solubility entry in series [1] is reported as “water soluble”.

Consider `COC(=O)/C=C/C(C)=C\C=C\C(C)=C\C=C\C=C(C)\C=C\C=C(C)\C=C\C(=O)O` [bixin, (2E,4E,6E,8E,10E,12E,14E,16Z,18E)-20-methoxy-4,8,13,17-tetramethyl-20-oxoicosa-2,4,6,8,10,12,14,16,18-nonaenoic acid], for which, in series [1], the solubility result is “insoluble in water”. Also, the chemical stability result in series [2] is “chemically unstable when isolated”.

`C=C(C)[C@@H]1CCC(C)=C[C@H]1c1c(O)cc(CCCCC)cc1O` [CBD, cannabidiol, reference compound]: the logP value entry is “about 6.5”. Further, the solubility result in series [1] was “insoluble in an aqueous environment”.
